# Like-named read-outs stand apart in the source and are kept apart here.
# Key:
# Test in all cases: Kinase selectivity, P33-radiolabeled assay
# Format in all cases: biochemical
# Settings in all cases: 10 μM ATP
# CTK/MATK = target: T1, CTK/MATK (Homo sapiens, UniProt P42679)
# T1 construct: purchased Reaction Biology Corp
# T1 sequence (P42679 1-507): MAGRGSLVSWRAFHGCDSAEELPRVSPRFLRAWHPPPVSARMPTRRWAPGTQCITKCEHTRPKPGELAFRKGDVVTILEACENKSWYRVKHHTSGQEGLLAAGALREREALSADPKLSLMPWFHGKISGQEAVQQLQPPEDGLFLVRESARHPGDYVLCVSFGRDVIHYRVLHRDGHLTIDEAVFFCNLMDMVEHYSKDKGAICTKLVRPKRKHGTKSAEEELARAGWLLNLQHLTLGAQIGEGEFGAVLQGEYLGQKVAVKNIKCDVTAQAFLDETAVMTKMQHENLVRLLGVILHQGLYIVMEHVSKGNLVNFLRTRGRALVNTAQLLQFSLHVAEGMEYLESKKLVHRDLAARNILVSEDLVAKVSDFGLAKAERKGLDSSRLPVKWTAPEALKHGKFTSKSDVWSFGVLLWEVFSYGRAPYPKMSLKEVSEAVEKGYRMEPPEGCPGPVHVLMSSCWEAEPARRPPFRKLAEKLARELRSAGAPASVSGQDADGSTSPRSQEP
# Procedure, shortened: (§1)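 Percent residual kinase activity versus DMSO is reported. Conditions: compound at 10 μM, ATP at 10 μM, n = 2.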
# GRK2 = target: T2, GRK2 (Homo sapiens, UniProt P25098)
# T2 construct: purchased Reaction Biology Corp
# T2 sequence (P25098 1-689): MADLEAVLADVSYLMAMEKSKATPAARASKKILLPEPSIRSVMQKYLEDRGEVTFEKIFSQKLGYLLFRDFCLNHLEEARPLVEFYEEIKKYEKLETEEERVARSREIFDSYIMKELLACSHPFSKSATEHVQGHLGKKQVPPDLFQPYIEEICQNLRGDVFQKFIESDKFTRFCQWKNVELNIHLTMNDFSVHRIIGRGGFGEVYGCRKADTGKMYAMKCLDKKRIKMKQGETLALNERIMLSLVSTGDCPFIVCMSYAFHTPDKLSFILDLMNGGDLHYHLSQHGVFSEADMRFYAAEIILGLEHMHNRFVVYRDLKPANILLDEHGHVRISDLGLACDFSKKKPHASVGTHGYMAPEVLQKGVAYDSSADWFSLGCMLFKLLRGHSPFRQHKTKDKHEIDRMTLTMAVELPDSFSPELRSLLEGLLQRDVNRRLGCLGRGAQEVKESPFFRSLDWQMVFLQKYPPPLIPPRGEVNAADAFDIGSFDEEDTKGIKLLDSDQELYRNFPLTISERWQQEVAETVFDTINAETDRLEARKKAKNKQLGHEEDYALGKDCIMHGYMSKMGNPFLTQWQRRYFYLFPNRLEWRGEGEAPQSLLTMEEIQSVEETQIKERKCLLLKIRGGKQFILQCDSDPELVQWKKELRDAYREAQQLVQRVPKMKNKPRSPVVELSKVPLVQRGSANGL
# Procedure, shortened: as §1
# STK22D/TSSK1 = target: T3, STK22D/TSSK1 (Homo sapiens, UniProt Q9BXA7)
# T3 construct: purchased Reaction Biology Corp
# T3 sequence (Q9BXA7 1-367): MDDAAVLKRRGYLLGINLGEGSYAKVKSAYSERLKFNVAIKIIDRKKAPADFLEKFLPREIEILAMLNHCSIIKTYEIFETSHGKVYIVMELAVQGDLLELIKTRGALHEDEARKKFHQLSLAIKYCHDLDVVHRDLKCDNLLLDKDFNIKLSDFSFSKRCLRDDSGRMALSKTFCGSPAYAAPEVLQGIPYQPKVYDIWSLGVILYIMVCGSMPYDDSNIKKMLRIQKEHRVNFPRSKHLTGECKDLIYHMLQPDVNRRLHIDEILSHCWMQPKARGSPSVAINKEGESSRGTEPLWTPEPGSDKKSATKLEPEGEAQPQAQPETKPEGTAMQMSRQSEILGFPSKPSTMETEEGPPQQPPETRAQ
# Procedure, shortened: as §1
# ZIPK/DAPK3 = target: T4, ZIPK/DAPK3 (Homo sapiens, UniProt O43293)
# T4 construct: purchased Reaction Biology Corp
# Procedure, shortened: as §1
# [1] = read-out: % Enzyme Activity (relative to DMSO controls) AVG
# [2] = read-out: % Enzyme Activity (relative to DMSO controls) Data 1
# [3] = read-out: % Enzyme Activity (relative to DMSO controls) Data 2
# T4 sequence (O43293 whole entry): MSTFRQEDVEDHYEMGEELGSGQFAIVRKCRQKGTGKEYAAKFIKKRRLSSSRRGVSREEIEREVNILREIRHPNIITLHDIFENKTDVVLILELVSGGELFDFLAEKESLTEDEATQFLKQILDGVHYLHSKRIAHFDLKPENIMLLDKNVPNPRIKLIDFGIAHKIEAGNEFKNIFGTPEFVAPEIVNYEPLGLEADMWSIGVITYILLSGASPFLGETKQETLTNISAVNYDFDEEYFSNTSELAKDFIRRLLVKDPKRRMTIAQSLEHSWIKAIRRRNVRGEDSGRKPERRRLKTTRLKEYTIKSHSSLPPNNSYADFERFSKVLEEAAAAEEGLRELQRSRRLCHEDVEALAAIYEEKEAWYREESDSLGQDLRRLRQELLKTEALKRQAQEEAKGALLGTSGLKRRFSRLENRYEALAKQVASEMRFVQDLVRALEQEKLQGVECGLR
smiles,measurement,setting,value
CC(C)(C)C(=O)N1N=CC[C@H]1c1ccccc1 [GSK′963],remaining activity at 10 µM,CTK/MATK; [1],93%
same,remaining activity at 10 µM,CTK/MATK; [2],91.5%
same,remaining activity at 10 µM,CTK/MATK; [3],94.5%
same,remaining activity at 10 µM,GRK2; [1],95.7%
same,remaining activity at 10 µM,GRK2; [2],99.5%
same,remaining activity at 10 µM,GRK2; [3],91.8%
same,remaining activity at 10 µM,STK22D/TSSK1; [1],110%
same,remaining activity at 10 µM,STK22D/TSSK1; [2],108%
same,remaining activity at 10 µM,STK22D/TSSK1; [3],112%
same,remaining activity at 10 µM,ZIPK/DAPK3; [1],111%
same,remaining activity at 10 µM,ZIPK/DAPK3; [2],118%
same,remaining activity at 10 µM,ZIPK/DAPK3; [3],104%

# From publication PMC4979471 (Cell Death Discovery, 2015)
